Laboratory results reported in patent US3983105A, “Penicillins” (Bayer Aktiengesellschaft, priority 1971, dated 1976).
Where “and” joins values, the source holds several entries; their conditions need not be identical. Identical values can stand only once. One block for each molecule: values may come before it.

What was measured:
Pseudomonas aeruginosa = assay: MIC, test tube serial dilution, Pseudomonas aeruginosa; type: cell-based
Klebsiella-Aerobacter [1] = assay: MIC, test tube serial dilution, Klebsiella-Aerobacter; type: cell-based
Escherichia coli = assay: MIC, test tube serial dilution, Escherichia coli; type: cell-based
Serratia marcescens = assay: MIC, test tube serial dilution, Serratia marcescens; type: cell-based
Providencia = assay: MIC, test tube serial dilution, Providencia; type: cell-based; settings: strain 930
Proteus rettgeri = assay: MIC, test tube serial dilution, Proteus rettgeri; type: cell-based
Proteus mirabilis = assay: MIC, test tube serial dilution, Proteus mirabilis; type: cell-based
Proteus morganii = assay: MIC, test tube serial dilution, Proteus morganii; type: cell-based
Proteus vulgaris = assay: MIC, test tube serial dilution, Proteus vulgaris; type: cell-based
Haemophilus influenzae = assay: MIC, test tube serial dilution, Haemophilus influenzae; type: cell-based
Streptococcus faecalis = assay: MIC, test tube serial dilution, Streptococcus faecalis; type: cell-based
Staphylococcus aureus = assay: MIC, test tube serial dilution, Staphylococcus aureus; type: cell-based
Klebsiella-Aerobacter [2] = settings: in vivo; cited from earlier work
in vivo = settings: mouse, iv

- MIC (Pseudomonas aeruginosa; strain A): 25 U/ml
- MIC (Pseudomonas aeruginosa; strain Bonn, 24 hours, 37°C): 200 U/ml
- MIC (Pseudomonas aeruginosa; strain E 27 500): 100 U/ml
- MIC (Pseudomonas aeruginosa; strain F 41, 24 hours, 37°C): 100 U/ml
- MIC (Pseudomonas aeruginosa; strain V 10 797): 50 U/ml
- MIC (Pseudomonas aeruginosa; strain V 10 818): 100 U/ml
- MIC (Pseudomonas aeruginosa; strain V 10 887): 100 U/ml
- MIC (Pseudomonas aeruginosa; strain V 10 900): 50 U/ml
- MIC (Pseudomonas aeruginosa; strain Walter, 24 hours, 37°C): 100 U/ml
- MIC (Klebsiella-Aerobacter [1]; aerogenes 418): 400 U/ml
- MIC (Klebsiella-Aerobacter [1]; strain 60): 100 U/ml
- MIC (Klebsiella-Aerobacter [1]; strain 62): 100 U/ml
- MIC (Klebsiella-Aerobacter [1]; strain 63, 24 hours, 37°C): 400 U/ml
- MIC (Klebsiella-Aerobacter [1]; strain 69): > 400 U/ml
- MIC (Klebsiella-Aerobacter [1]; strain 70): 400 U/ml
- MIC (Klebsiella-Aerobacter [1]; strain 75): > 400 U/ml
- MIC (Klebsiella-Aerobacter [1]; strain 1852): > 400 U/ml
- MIC (Klebsiella-Aerobacter [1]; strain 1871): 400 U/ml
- MIC (Klebsiella-Aerobacter [1]; strain K 10, 24 hours, 37°C): > 400 U/ml
- MIC (Escherichia coli; strain 14, 24 hours, 37°C): 1.6 U/ml
- MIC (Escherichia coli; strain 1465): > 400 U/ml
- MIC (Escherichia coli; strain A 261, 24 hours, 37°C): 400 U/ml
- MIC (Escherichia coli; strain B 94): 1.6 U/ml
- MIC (Escherichia coli; strain N): 6 U/ml
- MIC (Escherichia coli; strain S): 400 U/ml
- MIC (Escherichia coli; strain T 7): > 400 U/ml
- MIC (Escherichia coli; strain T 20/2): > 400 U/ml
- MIC (Serratia marcescens; strain 3): 400 U/ml
- MIC (Serratia marcescens; strain 7): 100 U/ml
- MIC (Serratia marcescens; strain 9): 6 U/ml
- MIC (Serratia marcescens; strain 13): 6 U/ml
- MIC (Serratia marcescens; strain K): 6 U/ml
- MIC (Providencia): 6 U/ml
- MIC (Proteus rettgeri; Sp.): 1.6 U/ml
- MIC (Proteus rettgeri; strain 1 050): > 400 U/ml
- MIC (Proteus rettgeri; strain 824): > 400 U/ml
- MIC (Proteus mirabilis; Sp.): 1.6 U/ml
- MIC (Proteus mirabilis; strain 605): 400 U/ml
- MIC (Proteus mirabilis; strain G.): 1.6 U/ml
- MIC (Proteus morganii; strain 1 102): > 800 U/ml
- MIC (Proteus morganii; strain 932, 24 hours, 37°C): 6 U/ml
- MIC (Proteus vulgaris; strain 3 400): 50 U/ml
- MIC (Haemophilus influenzae; strain 2 689): 1.6 U/ml
- MIC (Haemophilus influenzae; strain 2 718): 0.8 U/ml
- MIC (Haemophilus influenzae; strain 2 786): 1.6 U/ml
- MIC (Haemophilus influenzae; strain 2 788): < 0.4 U/ml
- MIC (Streptococcus faecalis; strain 8 698): 100 U/ml
- MIC (Streptococcus faecalis; strain 8 709): 200 U/ml
- MIC (Streptococcus faecalis; strain 8 711): 50 U/ml
- MIC (Staphylococcus aureus; strain P 209): < 0.8 U/ml
- MIC (Staphylococcus aureus; strain SG 511): < 0.8 U/ml
SMILES: CC1(C)S[C@@H]2[C@H](NC(=O)C(C(=O)O)c3ccccc3)C(=O)N2[C@H]1C(=O)O (some centres unmarked) [Carbenicillin, reference compound]
- effectiveness against infections (Klebsiella-Aerobacter [2]): only effective in man in the case of infections caused by Klebsiella-Aerobacter if administered in a continuous high dosage

SMILES: CNC(=O)N1CCN(C(=O)N[C@@H](C(=O)N[C@@H]2C(=O)N3[C@@H]2SC(C)(C)[C@@H]3C(=O)O)c2ccccc2)C1=O [Example 2, Sodium D(-)-α-[(3-methylaminocarbonyl-imidazolidin-2-on-1-yl)-carbonylamino]-benzylpenicillin]
- MIC (Pseudomonas aeruginosa; strain Bonn, 24 hours, 37°C): 50 U/ml
- MIC (Pseudomonas aeruginosa; strain Walter, 24 hours, 37°C): 25 U/ml
- MIC (Klebsiella-Aerobacter [1]; strain 63, 24 hours, 37°C): 12.5 U/ml and 12 U/ml
- MIC (Klebsiella-Aerobacter [1]; strain K 10, 24 hours, 37°C): 50 U/ml
- MIC (Escherichia coli; strain 183/58, 24 hours, 37°C): 1.6 U/ml
- MIC (Escherichia coli; strain A 261, 24 hours, 37°C): 100 U/ml
- MIC (Escherichia coli; strain C 165, 24 hours, 37°C): 1.6 U/ml
- MIC (Proteus morganii; strain 932, 24 hours, 37°C): 1.6 U/ml
- MIC (Proteus vulgaris; unit assumed): 6 µg/mL
- MIC (Streptococcus faecalis; ATCC 9790, 24 hours, 37°C): 50 U/ml
- MIC (Staphylococcus aureus; strain 133, 24 hours, 37°C): < 0.8 U/ml
- MIC (Staphylococcus aureus; strain 1756 (BRL 1 756), 24 hours, 37°C): 200 U/ml
- LD50 (in vivo): 3000 mg/kg
